According to ChEMBL document CHEMBL4359828, “Back to the future: Advances in development of broad-spectrum capsid-binding inhibitors of enteroviruses” (Eur J Med Chem, 2019):
pEC50, pIC50: −log10 of the molar value.

Legend:
rhinovirus B14 = assay: Antiviral activity against Human rhinovirus B14; type: functional, organism-based; conditions: Rhinovirus B
rhinovirus B5 = assay: Antiviral activity against Human rhinovirus B5; type: functional, organism-based; conditions: Rhinovirus B
[1] = Antiviral activity against Human rhinovirus B3; type: functional
Enterovirus [2] = assay: Antiviral activity against Rhinovirus; type: functional, organism-based
Poliovirus 2 [3] = assay: Antiviral activity against Human poliovirus 2; type: functional, organism-based; conditions: Enterovirus C
Human rhinovirus sp. [4] = assay: Antiviral activity against Human rhinovirus clinical isolates; type: functional, organism-based
Human rhinovirus sp. [5] = assay: Antiviral activity against Human rhinovirus clinical isolates relative to control; type: functional
Poliovirus 2 [6] = assay: Antiviral activity against Human poliovirus 2 relative to control; type: functional
Enterovirus C [7] = assay: Antiviral activity against Poliovirus assessed as reduction in virus induced cytopathic effect; type: functional, organism-based
Enterovirus C [8] = assay: Antiviral activity against Poliovirus assessed as reduction in virus induced cytopathic effect relative to control; type: functional
Enterovirus C [9] = assay: Antiviral activity against Poliovirus; type: functional, organism-based
rhinovirus A2 = assay: Antiviral activity against Human rhinovirus A2; type: functional, organism-based; conditions: Rhinovirus A
Coxsackievirus B3 = assay: Antiviral activity against Coxsackievirus B3; type: functional, organism-based; conditions: Enterovirus B
Enterovirus [10] = assay: Antiviral activity against Enterovirus clinical isolate; type: functional, organism-based
HeLa = assay: Cytotoxicity against human HeLa cells after 3 days by MTT assay; type: functional, cell-based; conditions: 72 h
Enterovirus A71 [11] = assay: Antiviral activity against Enterovirus A71 genotype A; type: functional, organism-based
Coxsackievirus A9 = assay: Antiviral activity against Coxsackievirus A9; type: functional, organism-based; conditions: Enterovirus B
Coxsackievirus A24 = assay: Antiviral activity against Coxsackievirus A24; type: functional, organism-based; conditions: Enterovirus C
Echovirus E9 = assay: Antiviral activity against Echovirus 9; type: functional, organism-based; conditions: Enterovirus B
enterovirus D68 = assay: Antiviral activity against Enterovirus D68; type: functional, organism-based; conditions: Enterovirus D
Enterovirus A71 [12] = assay: Antiviral activity against Enterovirus A71 genotype B; type: functional, organism-based; conditions: Enterovirus A
Enterovirus A71 [13] = assay: Antiviral activity against Enterovirus A71 genotype C; type: functional, organism-based; conditions: Enterovirus A

Work on `Cc1cc(CCCCCOc2c(Cl)cc(-c3ccc(Cl)s3)cc2Cl)on1` yielded a pIC50 (rhinovirus B14) of 5.28.

`Cc1cc(CCCOc2c(C)cc(-c3ccc(O)cc3)cc2C)on1` showed a pIC50 (rhinovirus B5) of 6.11 and a pIC50 [1] of 6.11.

With `COc1ccc(OCCCCCCn2ccnc2)c(Cl)c1` the pEC50 (Enterovirus [2]; Enterovirus) was 4.54 to 4.99.

`Cc1cc(CCCCCOc2c(Cl)cc(-c3cnco3)cc2Cl)on1` showed a pIC50 (rhinovirus B14) of 4.89.

With `COc1ccc(OCc2ccc(COc3c(Cl)cccc3Cl)cc2)c(Cl)c1` the pEC50 (Poliovirus 2 [3]) was 6.05, the pEC50 (Human rhinovirus sp. [4]) was 6.05 and the Activity (Human rhinovirus sp. [5]) was 80%. For the same molecule, the Activity (Poliovirus 2 [6]) was 80%, the pEC50 (Enterovirus C [7]) was 6.90 to 8.52 and the “inhibition (INH)” value (Enterovirus C [8]) was 90%. For the same molecule, the pEC50 (Enterovirus C [9]) was greater than 7.12.

For `Cc1cc(CCCOc2c(C)cc(-c3cccc(O)c3)cc2C)on1`, the pIC50 (rhinovirus B5) was 6.36 and the pIC50 [1] was 6.36.

For `Cc1cc(CCCCCCCOc2ccc(C3=NC(CO)CO3)cc2)on1` (stereo not drawn), the pIC50 (Poliovirus 2 [3]) was 5.59 to 6.05 and the pIC50 (rhinovirus A2) was 5.59 to 6.05.

In the case of `Cc1cc(CCCOc2c(C)cc(-c3cccc4ccccc34)cc2C)on1`, the pIC50 (rhinovirus A2) was 8.05 and the pIC50 (Coxsackievirus B3) was 5.87.

For `Cc1cc(CCCCCCCOc2ccc(C3=NC(C)(C)CO3)cc2)on1`, the pIC50 (Poliovirus 2 [3]) was 6.92 to 7.00 and the pIC50 (rhinovirus A2) was 7.22 to 7.40.

With `Cc1cc(CCCCCOc2c(Cl)cc(-c3ccco3)cc2Cl)on1` the pIC50 (rhinovirus B14) was 6.15.

`Cc1cc(CCCCCOc2c(Cl)cc(-c3cccs3)cc2Cl)on1` showed a pIC50 (rhinovirus B14) of 5.14.

In the case of `Cc1cc(CCCOc2c(C)cc(-c3cccc(C(F)(F)F)c3)cc2C)on1`, the pIC50 (rhinovirus A2) was 8.05 and the pIC50 (Coxsackievirus B3) was 5.87.

Work on `Cc1cc(CCCOc2c(C)cc(-c3noc(C(F)(F)F)n3)cc2C)on1` [PLECONARIL] yielded a pIC50 (Enterovirus [10]) of no less than 7.52 and a pIC50 (HeLa) of no less than 6.74.

`Cc1cc(CCCCCOc2c(Cl)cc(-c3cccnc3)cc2Cl)on1` showed a pIC50 (rhinovirus B14) of 6.01.

Molecule `Cc1cc(CCCCCCCOc2ccc(C3=NCCO3)cc2)on1` [DISOXARIL] has a pIC50 (Poliovirus 2 [3]) of 8.40, a pIC50 (Enterovirus [2]) of 5.21 to 8.40 and a pIC50 (rhinovirus A2) of 8.40.

`O=C1N(CCCCCOc2ccc(Br)cc2)CCN1c1ccncc1` gave a pIC50 (Enterovirus A71 [11]) of 5.80 to 6.52, a pIC50 (Coxsackievirus A9) of 6.26 to 6.33 and a pIC50 (Coxsackievirus A24) of 6.26 to 6.33. For the same molecule, the pIC50 (Echovirus E9) was 5.59, the pIC50 (enterovirus D68) was 5.67 and the pIC50 (Enterovirus A71 [12]) was 5.80 to 6.52. It also gave a pIC50 (Enterovirus A71 [13]) of 5.80 to 6.52.

With `Cc1cc(CCCCCOc2c(Cl)cc(-c3ccc(C)o3)cc2Cl)on1` the pIC50 (rhinovirus B14) was 5.58.

Work on `Cc1cc(CCCCCOc2c(Cl)cc(-c3ncco3)cc2Cl)on1` yielded a pIC50 (rhinovirus B14) of 5.74.

`Cc1cc(CCCCCCOc2ccc(C3=NCCO3)cc2)on1` showed a pIC50 (Poliovirus 2 [3]) of 8.10 and a pIC50 (rhinovirus A2) of 6.92 to 7.00.

In the case of `Cc1cc(CCCOc2c(C)cc(-c3ccc(C(F)(F)F)cc3)cc2C)on1`, the pIC50 (rhinovirus A2) was 8.05 and the pIC50 (Coxsackievirus B3) was 5.87.

`Cc1cc(CCCCCOc2c(Cl)cc(-c3nnn(C)n3)cc2Cl)on1` gave a pIC50 (rhinovirus B14) of 5.92.

With `Cc1cc(CCCOc2c(C)cc(-c3ccc(F)cc3)cc2C)on1` the pIC50 (rhinovirus A2) was 8.05, the pIC50 (rhinovirus B5) was 6.96 and the pIC50 [1] was 6.92. It also gave a pIC50 (Coxsackievirus B3) of 5.87.
